Laboratory results reported in patent publication US6544521B2, “Immunoreactive peptide CTL epitopes of human cytomegalovirus pp150” (City of Hope, priority 2000, dated 2003).

Test system: pp150-specific T cell clones
Assay: Chromium release assay with peptide-sensitized EBVLCL and pp150-specific CTL clones (epitope mapping)
Type: cell-based, human
Details: persons having the indicated HLA allele; target cells sensitized with peptide at 50 μM

Sequence	Number of Individuals Tested
TTVYPPSSTAK (listed as Human cytomegalovirus) [SEQ ID NO: 1]	2/2
QTVTSTPVQGR (listed as Human cytomegalovirus) [SEQ ID NO: 2]	2/2
